Measured values reported in patent publication US8012967B2, “Minor groove binders” (University of Strathclyde, priority 2006, dated 2011).
Read-outs that look alike come from different tables or passages of the source.

Columns and labels:
Format in all cases: cell-based
[1] = system: Staphylococcus aureus Strain 1 (BSAC04(1)) (Clinical isolate from Glasgow Royal Infirmary); assay: MIC, Staphylococcus aureus Strain 1; conditions: Staphylococcus aureus, read-out: Minimum inhibitory concentrations (MICs), S aureus 1
Method: The effects of compounds of the invention in relation to inhibiting the growth of various microorganisms was determined using methods known to those skilled in the art, for example in vitro methods as described in J. Med. Chem. 47, 2133-2156 (2004) and in vivo methods as described in J. Med. Microbiol. 46, 208-213 (1997), the disclosures of which documents are hereby incorporated by reference.
In particular, minimum inhibitory concentrations (MICs) against microorganisms (e.g. S. Aureus, Streptococcus faecalis, Aspergillus niger, Candida albicans or Mycobacterium fortuitum) for compounds of the invention may be measured using procedures such as those described in A. J. Drummond and R. D. Waigh “The development of microbiological methods for phytochemical screening” Recent Res. Devel. Phytochem. 4, 143-152 (2000), the disclosures of which document are hereby incorporated by reference.
Sample dilutions were typically prepared by dissolving the test sample (2 mg) in sterile water (10 mL) to provide a working concentration of 200 μg/ml. The test wells on each 96 well microtitre plate were initially inoculated with culture medium (100 μL) using Mueller-Hinton Broth for antibacterial assays and Sabouraud Broth for antifungal assays. A solution of each test sample (100 μL) was added to one row of each plate and a series of doubling dilutions made for successive rows. Incubation was at 37° C. for antibacterial assay and 25° C. for antifungal assay. […] From the observed pattern of colour, the MIC was determined. All tests included sterility and growth controls.

[2] = system: Streptococcus faecalis (NCTC 775); assay: MIC, Streptococcus faecalis; conditions: Enterococcus faecalis, NCTC775, read-out: Minimum inhibitory concentrations (MICs), St. faecalis
Method: (§1) The effects of compounds of the invention in relation to inhibiting the growth of various microorganisms was determined using methods known to those skilled in the art, for example in vitro methods as described in J. Med. Chem. 47, 2133-2156 (2004) and in vivo methods as described in J. Med. Microbiol. 46, 208-213 (1997), the disclosures of which documents are hereby incorporated by reference. In particular, minimum inhibitory concentrations (MICs) against microorganisms (e.g. S. Aureus, Streptococcus faecalis, Aspergillus niger, Candida albicans or Mycobacterium fortuitum) for compounds of the invention may be measured using procedures such as those described in A. J. Drummond and […] development of microbiological methods for phytochemical screening” Recent Res. Devel. […] The test wells on each 96 well microtitre plate were initially inoculated with culture medium (100 μL) using Mueller-Hinton Broth for antibacterial assays and Sabouraud Broth for antifungal assays. A solution of each test sample (100 μL) was added to one row of each plate and a series of doubling dilutions made for successive rows. Incubation was at 37° C. for antibacterial assay and 25° C. for antifungal assay. […] From the observed pattern of colour, the MIC was determined. All tests included sterility and growth controls.

[3] = system: Mycobacter fortuitum (NCTC 10394); assay: MIC, Mycobacter fortuitum; conditions: Mycolicibacterium fortuitum, NCTC10394, read-out: Minimum inhibitory concentrations (MICs), M. fortuitum
Method: as §1

[4] = system: Candida albicans (NCPF3179); assay: MIC, Candida albicans; conditions: Candida albicans, NCPF3179, read-out: Minimum inhibitory concentrations (MICs), C. albicans
Method: as §1

[5] = system: Aspergillus niger (IMI 1745); assay: MIC, Aspergillus niger; conditions: Aspergillus niger, read-out: Minimum inhibitory concentrations (MICs), A. niger
Method: as §1

[6] = system: Staphylococcus aureus Strain 2 (NCTC 6571); assay: MIC, Staphylococcus aureus Strain 2; conditions: Staphylococcus aureus, NCTC6571, read-out: Minimum inhibitory concentrations (MICs), S. aureus 2
Method: as §1

[7] = value in parentheses, na = not active

SMILES | MIC [1, 7] [µg/mL] | MIC ([1]; value outside parentheses) [µM] | MIC [2, 7] [µg/mL] | MIC ([2]; value outside parentheses) [µM] | MIC [3, 7] [µg/mL] | MIC ([3]; value outside parentheses) [µM] | MIC [4, 7] [µg/mL] | MIC ([4]; value outside parentheses) [µM] | MIC [5, 7] [µg/mL] | MIC ([5]; value outside parentheses) [µM] | MIC [6, 7] [µg/mL] | MIC ([6]; value outside parentheses) [µM]
Cn1cc(NC(=O)c2cc(NC(=O)c3cc(/C=C/c4cnc5ccccc5c4)cn3C)cn2C)cc1C(=O)NCCN1CCOCC1 [Example 10, 1-Methyl-N-[1-methyl-5-({[1-methyl-5-({[2-(4-morpholinyl)ethyl]amino}-carbonyl)-1H-pyrrol-3-yl]amino}carbonyl)-1H-pyrrol-3-yl]-4-[(E)-2-(3-quinolinyl)ethenyl]-1H-pyrrole-2-carboxamide] | 4 | 5.3 | 12.5 | 15 | 100 | 116 | 100 | 116 |  |  |  | 
CC(C)CCc1sc(NC(=O)c2cc(NC(=O)c3ccc(/C=C/c4cnc5ccccc5c4)cc3)cn2C)nc1C(=O)NCCN1CCOCC1 [Example 16, 5-Isopentyl-2-({[1-methyl-4-({4-[(E)-2-(3-quinolinyl)ethenyl]benzoyl}amino)-1H-pyrrol-2-yl]carbonyl}amino)-N-[2-(4-morpholinyl)ethyl]-1,3-thiazole-4-carboxamide] |  |  |  |  | 100 | 122 | 50 | 61 | 100 | 122 |  | 
CC(C)CCc1sc(NC(=O)c2cc(NC(=O)c3ccc(/C=C/c4cc5ccccc5nc4Cl)cc3)cn2C)nc1C(=O)NCCN1CCOCC1 [Example 17, 2-({[4-({4-[(E)-2-(2-Chloro-3-quinolinyl)ethenyl]benzoyl}amino)-1-methyl-1H-pyrrol-2-yl]carbonyl}amino)-5-isopentyl-N-[2-(4-morpholinyl)ethyl]-1,3-thiazole-4-carboxamide] |  |  |  |  | 100 | 117 | 100 | 117 |  |  |  | 
CC(C)CCc1sc(NC(=O)c2cc(NC(=O)c3ccc(/C=C/c4cc5ccccc5nc4On4nnc5ccccc54)cc3)cn2C)nc1C(=O)NCCN1CCOCC1 [Example 18, 2-[({4-[(4-{(E)-2-[2-(1H-1,2,3-Benzotriazol-1-yloxy)-3-quinolinyl]ethenyl}-benzoyl)amino]-1-methyl-1H-pyrrol-2-yl}carbonyl)amino]-5-isopentyl-N-[2-(4-morpholinyl)ethyl]-1,3-thiazole-4-carboxamide] |  |  |  |  | 100 | 169 | 100 | 169 |  |  |  | 
COc1ccc(/C=C/c2ccc3cc(C(=O)Nc4cc(C(=O)Nc5cc(C(=O)NCCN6CCOCC6)n(C)c5)n(C)c4)ccc3n2)cc1 [Example 23, 2-[(E)-2-(4-Methoxyphenyl)ethenyl]-N-[1-methyl-5-({[1-methyl-5-({[2-(4-morpholinyl)ethyl]amino}carbonyl)-1H-pyrrol-3-yl]amino}carbonyl)-1H-pyrrol-3-yl]-6-quinolinecarboxamide] | 4 | 5.2 | 25 | 32 | 100 | 129 | 100 | 129 | 50 | 64 |  | 
CSc1ccc(/C=C/c2ccc3cc(C(=O)Nc4cc(C(=O)Nc5cc(C(=O)NCCN6CCOCC6)n(C)c5)n(C)c4)ccc3n2)cc1 [Example 24, N-[1-Methyl-5-({[1-methyl-5-({[2-(4-morpholinyl)ethyl]amino}carbonyl)-1H-pyrrol-3-yl]amino}carbonyl)-1H-pyrrol-3-yl]-2-{(E)-2-[4-(methylsulfanyl)-phenyl]ethenyl}-6-quinolinecarboxamide] | 4 | 5.1 | 100 | 26 |  |  | 100 | 126 | 100 | 126 | 100 | 126
